Values of other authors, collected in patent publication US20090012066A1, “Method of Use of Deacetylase Inhibitors” (Novartis AG, priority 2005, published 2009).

Tests used:
[1] = test system: cardiac hypertrophy in transgenic mice that over-express Hop; settings: transgenic mice over-expressing Hop; Kook et al. 2003
[2] = test system: hypertrophy induced by infusion of isoproterenol

CC(/C=C/C(=O)NO)=C\[C@@H](C)C(=O)c1ccc(N(C)C)cc1 [trichostatin A]
effect on cardiac hypertrophy [1]: prevents cardiac hypertrophy | effect on hypertrophy induced by infusion of isoproterenol [2]: attenuates hypertrophy
